Among the data in publication PMC7076710, “Synthesis, Identification, and Structure–Activity Relationship Analysis of GATA4 and NKX2-5 Protein–Protein Interaction Modulators” (Journal of Medicinal Chemistry, 2019) are activity values, retold here.

The target in this experiment is T1, GATA4–NKX2-5 transcriptional synergy (Mus musculus, UniProt P42582+Q08369).
T1 construct: expressed in transfected cells; host or cells: COS-1
The experiment can be described thus: GATA4–NKX2-5 transcriptional synergy luciferase reporter assay (3xNKE reporter, COS-1 cells). In kind it is cell-based. As for the experimental part:
To screen compounds for the GATA4–NKX2-5 interaction, we have developed a luciferase reporter assay based on their property to activate gene transcription synergistically through the NKX2-5 binding site on DNA.[28] In this assay, we transfected mammalian COS-1 cells with protein expression vectors for GATA4 and NKX2-5 proteins together with artificial luciferase reporter vector containing three high affinity binding sites for NKX2-5 (NKE). […] All 257 compounds were tested in two concentrations, 3 and 10 μM. Compounds either inhibited, enhanced, or had no effect on the GATA4–NKX2-5 transcriptional synergy. To investigate the selectivity of the active compounds, we tested their effects on NKX2-5 transcriptional activity by using the same luciferase reporter vector as in transcriptional synergy assay with three NKE sites (Figure 3B). Furthermore, we used GATA luciferase reporter assay to examine if compounds have an effect on GATA4 transcriptional activity. In this assay, we cotransfected the cells with a GATA4 protein expression vector and a reporter vector with tandem GATA4 binding sites (Figure 3C). Previously we have reported that compound 1 inhibited the GATA4–NKX2-5 transcriptional synergy at micromolar concentrations (IC50 = 3 μM).[29]
The plasmids expressing mouse GATA4 protein, pMT2-GATA4, and empty pMT2 were gifts from D. B. Wilson (Department of Pediatrics, St. Louis Children’s Hospital, St. Louis, MO).[44] The plasmids expressing mouse NKX2-5 protein, pMT2-NKX2-5, have been described earlier.[28] The luciferase reporter plasmid used in GATA4–NKX2-5 transcriptional synergy assay and NKX transcriptional assay, pGL3-3xHA, contains three high affinity binding sites for NKX2-5.[28] The luciferase reporter plasmid used in GATA transcriptional assay, NP-112, contains tandem GATA-sites and minimal promoter of rat brain natriuretic peptide (BNP) gene.[45] The pGL3-BNP luciferase reporter containing −534/+4 bp rat BNP proximal promoter described previously was used in hypertrophy assay.[46]
The primary screening assay of compounds’ effect on GATA4–NKX2-5 transcriptional synergy and COS-1 cell culturing has been described earlier.[33] […] (Kinnunen et al., unpublished observation). Briefly, COS-1 cells were seeded at 14 000 cells/well in Isoplate-96 microplates (PerkinElmer, Turku, Finland) and grown overnight. The cells were transfected with the luciferase reporter plasmid pGL3-3xHA 100 ng/well and equal amounts of expression plasmids pMT2-GATA4 and pMT2-NKX2-5 total 50 ng/well. To verify the synergistic effect, the cells were transfected with pMT2-GATA4 or pMT2-NKX2-5 25 ng/well, and the total DNA concentration was adjusted to 50 ng/well with empty pMT2 plasmid. In NKX2-5 and GATA4 luciferase reporter assays, the cells were transfected with reporter plasmid pGL3-3xHA or NP-112 (100 ng/well) and expression plasmid pMT2-NKX2-5 or pMT2-GATA4 (25 ng/well). The ratio of DNA/transfection reagent (Fugene 6, Promega) was 1:3 in all assays. The transfections were performed in serum and antibiotics free media for 6 h. The cells were treated with compounds or vehicle (0.1% DMSO) for 24 h, and the luminescence was measured using neolite Reporter Gene Assay System (PerkinElmer, Turku, Finland) and Victor2 plate reader (PerkinElmer, Turku, Finland).
Raw luciferase data were analyzed in Excel, and clear outliers were removed from triplicates by using the Grubb’s test. Data analysis was performed using R.[49] The luciferase data were first normalized on the basis of the combined mean value of controls. For data visualization and creation of figures, the following R packages were used: ggplot2, cowplot, RColorBrewer, and pheatmap. The heatmaps of the toxicity data were produced with GraphPad Prism 7.00 (GraphPad Software, La Jolla, CA). Statistical significance of luciferase reporter assay data was evaluated by randomized block analysis of variance followed by Dunnett’s post hoc test. […]

Setting [1] is: COS-1, compound 3 µM, luciferase reporter activity relative to control.
The mark [2] stands for this setting: COS-1, compound 10 µM, luciferase reporter activity relative to control.
Setting [3] is: COS-1, compound at 3 µM, luciferase reporter activity, % of control.
Where [4] appears, read: COS-1, compound at 10 µM, luciferase reporter activity, % of control.
The mark [5] stands for this setting: COS-1, GATA4-NKX2-5 transcriptional synergy luciferase reporter assay, compound at 3 µM.
Where [6] appears, read: COS-1, GATA4-NKX2-5 transcriptional synergy luciferase reporter assay, compound at 10 µM.
The mark [7] stands for this setting: COS-1, 3 µM, luciferase reporter activity, % of control.
Setting [8] is: COS-1, 10 µM, luciferase reporter activity, % of control.
The mark [9] stands for this setting: COS-1, compound 3 µM, luciferase reporter activity, spread in separate STDEV column.
[10] abbreviates: COS-1, compound 10 µM, luciferase reporter activity, spread in separate STDEV column.

The structures appear in SMILES notation.

T1 sequence (Q08369 whole entry): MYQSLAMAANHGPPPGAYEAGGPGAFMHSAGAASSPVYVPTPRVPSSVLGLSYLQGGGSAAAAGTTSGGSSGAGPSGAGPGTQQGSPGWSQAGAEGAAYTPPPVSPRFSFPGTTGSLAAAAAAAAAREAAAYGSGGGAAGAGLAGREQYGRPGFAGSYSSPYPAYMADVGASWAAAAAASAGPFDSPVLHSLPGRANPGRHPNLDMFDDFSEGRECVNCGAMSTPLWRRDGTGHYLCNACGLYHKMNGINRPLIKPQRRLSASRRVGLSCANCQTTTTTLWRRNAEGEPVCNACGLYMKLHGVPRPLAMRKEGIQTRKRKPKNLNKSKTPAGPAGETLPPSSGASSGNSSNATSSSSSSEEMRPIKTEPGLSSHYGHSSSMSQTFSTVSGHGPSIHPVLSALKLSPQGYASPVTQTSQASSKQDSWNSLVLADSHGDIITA
T1 sequence (P42582 whole entry): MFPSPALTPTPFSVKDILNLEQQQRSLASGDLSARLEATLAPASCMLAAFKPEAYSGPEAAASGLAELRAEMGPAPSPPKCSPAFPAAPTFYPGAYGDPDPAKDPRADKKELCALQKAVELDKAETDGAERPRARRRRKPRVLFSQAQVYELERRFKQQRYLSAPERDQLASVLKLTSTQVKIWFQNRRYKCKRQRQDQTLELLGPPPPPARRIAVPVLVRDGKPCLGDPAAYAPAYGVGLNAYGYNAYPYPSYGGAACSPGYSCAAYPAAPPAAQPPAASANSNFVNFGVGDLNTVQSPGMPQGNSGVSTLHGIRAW

Turning to `CCCCOC(=O)c1ccc(N=Nc2c(-c3ccc(OC)cc3)n[nH]c2N)cc1` [SI96], the activity at 3 µM under setting [1] turned out to be 97.6%. For the same compound, the activity at 10 µM under setting [2] was 78.6%.

Consider `Cc1noc(-c2ccccc2)c1C(=O)Nc1ccc(CN(C)C)cc1` [SI71], for which, under setting [1], the activity at 3 µM amounted to 109%. The activity at 10 µM under setting [2] is 105%.

As for `CCN(CC)c1ccc(CN(C)c2c(-c3ccccc3)noc2C)cc1` [Compound 30a, N-[4-(Diethylamino)benzyl]-N,5-dimethyl-3-phenylisoxazol-4-amine], under setting [1], the activity at 3 µM came to 103%.

On to `CCN(CC)c1ccc(C(=O)Nc2c(C(N)=O)oc3ccccc23)cc1` [SI106], for which, under setting [3], the activity at 3 µM came out at 94.1%. Further, the activity at 10 µM under setting [4] turned out to be 95.8%.

`O=C(Nc1cc(-c2cccs2)n[nH]1)c1ccccc1` [SI128]: under setting [5], the activity at 3 µM was determined as 110%. In addition, the activity at 10 µM under setting [6] amounted to 69.3%.

As for `CCN(CC)c1ccc(N(CCOC)C(=O)c2c(-c3cccc([N+](=O)[O-])c3)noc2C)cc1` [SI30], under setting [1], the activity at 3 µM is 74.9%. The activity at 10 µM under setting [2] is 86%.

In the case of `CCN(CC)c1ccc(N(CCC2OCCO2)C(=O)c2c(-c3cccc([N+](=O)[O-])c3)noc2C)cc1` [SI29], the activity at 3 µM under setting [1] is 82.9%. Further, the activity at 10 µM under setting [2] worked out at 82.5%.

As to `CCN(CC)c1ccc(NCc2c[nH]nc2C2CCCCC2)cc1` [SI85], the activity at 3 µM (3 µM compound, GATA4–NKX2-5 transcriptional synergy reporter, COS-1 cells) worked out at 88.4%. For the setting “10 µM compound, GATA4–NKX2-5 transcriptional synergy reporter, COS-1 cells”, the activity at 10 µM is 82.1%.

Take `Cc1cc(-c2noc(C)c2C(=O)Nc2cccc(Cl)c2)no1` [SI136]: under setting [5], the activity at 3 µM is 83%. For the same compound, under setting [6], the activity at 10 µM is 82.5%.

On to `CCN(CC)c1ccc(NC(=O)c2c(-c3ccccc3)noc2C)c(C)c1` [SI132], for which the activity at 3 µM under setting [5] was determined as 85.4%. In addition, under setting [6], the activity at 10 µM is 61.6%.

Regarding `CCC(=O)c1ccc(OCc2c(C)noc2-c2ccccc2)cc1` [SI47], under setting [1], the activity at 3 µM was 89.3%. Also, under setting [2], the activity at 10 µM amounted to 95.3%.

Take `Cc1cc(NC(=O)c2c(-c3ccccc3)noc2C)ncc1[N+](=O)[O-]` [SI10]: the activity at 3 µM under setting [3] was 116%. In addition, under setting [4], the activity at 10 µM stood at 78.3%.

With `CC(C)c1ccc(NC(=O)c2n[nH]c3c2COc2ccccc2-3)cc1` [SI119], the activity at 3 µM under setting [5] was found to be 91.2%. For the same compound, the activity at 10 µM under setting [6] is 103%.

Regarding `Cc1onc(-c2ccccc2)c1NC(=O)OC(C)(C)C` [SI17], the activity at 3 µM under setting [7] was 99.2%. Moreover, the activity at 10 µM under setting [8] amounted to 87.1%.

With `Cc1onc(-c2ccccc2)c1C(=O)Nc1ccc(C(=O)OCCN(C)C)cc1` [Compound 10d], under setting [9], the activity at 3 µM worked out at 99.6%. Under setting [10], the activity at 10 µM worked out at 115%.

`CCN(CC)c1ccc(NC(=S)c2c(-c3c(Cl)cccc3Cl)noc2C)cc1` [SI53]: under setting [3], the activity at 3 µM amounted to 81.2%. For the same compound, under setting [4], the activity at 10 µM is 70.1%.

Turning to `Cc1cc(-c2noc(C)c2C(=O)Nc2ccc(Cl)cc2)no1` [SI134], the activity at 3 µM under setting [5] is 82.9%. For the same compound, the activity at 10 µM under setting [6] turned out to be 87.7%.

For `CCN(CC)c1ccc(NC(=O)c2c(-c3ccccc3)nnn2CCOC)cc1` [Compound 47k], under setting [1], the activity at 3 µM turned out to be 73.2%.

As to `COc1ccc(-c2n[nH]c(N)c2/N=N/c2ccc(C(=O)O)cc2)cc1` [SI95], the activity at 3 µM under setting [1] came out at 91.9%. Besides, the activity at 10 µM under setting [2] worked out at 89.3%.

For the compound `COC(=O)c1c(-c2ccccc2)nnn1CCc1ccccc1` [SI111], the activity at 3 µM under setting [1] was found to be 103%. Moreover, under setting [2], the activity at 10 µM is 106%.

As for `CCCOC(=O)c1ccc(OCc2c(-c3ccccc3)noc2C)cc1` [Compound 34c, Propyl 4-[(5-Methyl-3-phenylisoxazol-4-yl)methoxy]benzoate], the activity at 3 µM under setting [1] stood at 97.7%. The activity at 10 µM under setting [2] came out at 107%.

Regarding `Cc1onc(-c2ccccc2)c1COc1ccc(C(=O)OCC(C)C)cc1` [Compound 35e], the activity at 3 µM under setting [1] came to 87.7%.

With `CCN(CC)c1ccc(NCc2ccncc2)cc1` [SI41], the activity at 3 µM under setting [1] amounted to 110%. Besides, under setting [2], the activity at 10 µM is 100%.

Regarding `CCN(CCO)c1ccc(N(C)C(=O)c2c(-c3ccccc3)noc2C)cc1` [SI36], the activity at 3 µM under setting [3] was found to be 87%. The activity at 10 µM under setting [4] amounted to 117%.

In the case of `Cc1onc(-c2ccccc2)c1C(=O)N(C)c1ccc(C(=O)O)cc1` [Compound 68], under setting [9], the activity at 3 µM stood at 117%. Also, the activity at 10 µM under setting [10] worked out at 127%.

Consider `CC[N+](C)(c1ccc(NC(=O)c2c(-c3ccccc3)noc2C)cc1)C(C)C` (stereo not shown) [Compound 7, N-Ethyl-N-isopropyl-N-methyl-4-(5-methyl-3-phenylisoxazole-4-carboxamido)benzenaminium Iodide], for which the activity at 3 µM under setting [3] is 88.4%.

For the compound `Cc1onc(-c2ccccc2)c1C(=O)Nc1ccc(N(C)C)cc1` [Compound 4d, N-[4-(Dimethylamino)phenyl]-5-methyl-3-phenylisoxazole-4-carboxamide], the activity at 3 µM under setting [7] was 88.1%.

Turning to `CCN(CC)c1ccc(/N=N/c2c(C)noc2C)cc1` [SI20], the activity at 3 µM under setting [7] is 82.6%. In addition, the activity at 10 µM under setting [8] came out at 101%.

`Nc1c(/N=N/c2ccc([N+](=O)[O-])cc2)c(-c2ccccc2)nn1-c1ccccc1` [SI97]: the activity at 3 µM under setting [7] was found to be 73.3%. In addition, the activity at 10 µM under setting [8] was determined as 61.2%.

For the compound `CCN(CC)c1ccc(NC(=O)c2c(C)noc2-c2cc(-c3ccco3)on2)cc1` [SI76], the activity at 3 µM under setting [9] was 108%. Also, under setting [10], the activity at 10 µM was determined as 100%.

For `CCN(CC)c1ccc(NC(=S)c2c(-c3ccccc3)noc2C)cc1` [Compound 23, N-[4-(Diethylamino)phenyl]-5-methyl-3-phenylisoxazole-4-carbothioamide], under setting [3], the activity at 3 µM was 90.6%.

Turning to `CCN(CC)c1ccc(NC(=O)c2ncoc2-c2ccccc2)cc1` [Compound 47a], under setting [7], the activity at 3 µM is 90.7%. Besides, the activity at 10 µM under setting [8] is 112%.

Regarding `Cc1onc(-c2ccccc2)c1C(=O)Nc1ccc(OCCN2CCOCC2)cc1` [Compound 4h], the activity at 3 µM under setting [7] turned out to be 89.8%.

Consider `Cc1onc(-c2ccccc2)c1NC(=O)c1ccc(CN(C)C)cc1` [SI33], for which the activity at 3 µM under setting [3] was 95.3%. Besides, under setting [4], the activity at 10 µM was 112%.

For `Cc1onc(-c2ccccc2)c1C(=O)Nc1ccc2c(c1)C(=O)CC2` [Compound 4a, 5-Methyl-N-(3-oxo-2,3-dihydro-1H-inden-5-yl)-3-phenylisoxazole-4-carboxamide], the activity at 3 µM under setting [9] turned out to be 103%.

Take `N#Cc1ccc(NC(=O)c2cc(-c3ccco3)on2)cc1` [SI113]: the activity at 3 µM under setting [9] turned out to be 101%. The activity at 10 µM under setting [10] came to 99.2%.

Take `CCN(CC)c1ccc(NC(=O)c2c(-c3cc(Br)cs3)noc2C)cc1` [Compound 39l]: the activity at 3 µM under setting [9] amounted to 91%.

Consider `Cc1ccc(NC(=O)c2c(-c3cc(C)on3)noc2C)cc1` [SI133], for which the activity at 3 µM under setting [5] was determined as 88.6%. Besides, the activity at 10 µM under setting [6] is 86.3%.

Turning to `CCN(CC)c1ccc(C(=O)Nc2c(-c3ccccc3)noc2C)cc1` [Compound 27], under setting [3], the activity at 3 µM is 98.5%.

`O=C(Nc1ccc(F)c(Cl)c1)c1cnoc1-c1ccco1` [SI124]: the activity at 3 µM under setting [5] came to 108%. Under setting [6], the activity at 10 µM is 102%.
